Results as given in US8889878B2, “Haloalky-substituted amides as insecticides and acaricides” (Bayer CropScience AG, priority 2009, dated 2014).

Assay: logP by HPLC on reverse-phase column (EEC Directive 79/831 Annex V.A8)
Format: physicochemical
Conditions: HPLC, C18 reverse phase, 43° C., acidic range pH 2.7, calibration with alkan-2-ones
Experimental: The logP values reported in the above Tables and Preparation Examples were determined according to EEC Directive 79/831 Annex V.A8 by HPLC (High Performance Liquid Chromatography) on a reverse-phase column (C18). Temperature 43° C.
Molecule `ON=C(c1cc(F)cc(C(F)(F)F)c1)C(F)(F)F` (racemic) [2,2,2-Trifluoro-1-[3-fluoro-5-(trifluoromethyl)phenyl]ethanone oxime] has a logP of 3.21. In the case of `O=C(NC1CC1)c1cc2cc(C(=O)NC(c3cccc(C(F)(F)F)c3)C(F)(F)F)n(Cc3ccccc3)c2cc1Cl` (racemic) [Ic-28], the logP is reported as “HPLC-MS: logP = 4.25; mass”. With `CNC(=O)c1cc2cc(C(=O)NC(c3cccc(C(F)(F)F)c3)C(F)(F)F)n(C)c2cc1Cl` (racemic) [Ic-30] the logP was “HPLC-MS: logP = 3.2; mass (m/z):”. For `C#CC(C)NC(=O)c1cc2cc(C(=O)NC(c3cccc(C(F)(F)F)c3)C(F)(F)F)n(C)c2cc1Cl` (racemic) [Ic-31], the logP was “HPLC-MS: logP = 3.73; mass”. With `Cn1c(C(=O)NC(c2cccc(C(F)(F)F)c2)C(F)(F)F)cc2cc(C(=O)NC3CSC3)c(Cl)cc21` (racemic) [Ic-33] the logP was “HPLC-MS: logP = 3.82; mass”.

Same assay, conditions: HPLC-MS
In the case of `COC(=O)C(C)NC(=O)c1ccc(C=CC(=O)NC(c2cccc(C(F)(F)F)c2)C(F)(F)F)cc1Cl` (mixture of isomers) [Ia-191], the logP is reported as “HPLC-MS: logP = 3.29; mass”. With `CCC(C)NC(=O)c1ccc(C=CC(=O)NC(c2cccc(C(F)(F)F)c2)C(F)(F)F)cc1Cl` (mixture of isomers) [Ia-192] the logP was “HPLC-MS: logP = 3.71; mass”. With `O=C(C=Cc1ccc(C(=O)NCC=CCl)c(Cl)c1)NC(c1cccc(C(F)(F)F)c1)C(F)(F)F` (mixture of isomers) [Ia-193] the logP was “HPLC-MS: logP = 3.58; mass”. For `Cn1nccc1NC(=O)c1ccc(/C=C/C(=O)NC(c2cccc(C(F)(F)F)c2)C(F)(F)F)cc1Cl` (racemic) [Ia-188], the logP was “HPLC-MS: logP = 2.73; mass”. For `Cn1nccc1CNC(=O)c1ccc(/C=C/C(=O)NC(c2cccc(C(F)(F)F)c2)C(F)(F)F)cc1Cl` (racemic) [Ia-189], the logP was “HPLC-MS: logP = 2.93; mass”. In the case of `O=C(/C=C/c1ccc(C(=O)Nc2ncc(Cl)cn2)c(Cl)c1)NC(c1cccc(C(F)(F)F)c1)C(F)(F)F` (racemic) [Ia-199], the logP is reported as “HPLC-MS: logP = 3.47; mass”. In the case of `N#Cc1cc(/C=C/C(=O)NC(c2cccc(C(F)(F)F)c2)C(F)(F)F)ccc1-n1cccn1` (racemic) [Ia-201], the logP is reported as “HPLC-MS: logP = 3.5; mass”. With `N#Cc1cnn(-c2ccc(/C=C/C(=O)NC(c3ccc(F)c(Cl)c3)C(F)(F)F)cc2Cl)c1` (racemic) [Ia-202] the logP was “HPLC-MS: logP = 3.77; mass”. With `O=C(/C=C/c1ccc(C(=O)Nc2cnccn2)c(Cl)c1)NC(c1cccc(C(F)(F)F)c1)C(F)(F)F` (racemic) [Ia-216] the logP was “HPLC-MS: logP = 3.31; mass”.

Same assay, conditions: reverse-phase C18 HPLC column, pH 2.7, HPLC, C18 reverse phase, 43° C., acidic range pH 2.7, calibration with alkan-2-ones
Work on `ON=C(c1cc(F)cc(C(F)(F)F)c1)C(F)(F)F` (racemic) [2,2,2-Trifluoro-1-[3-fluoro-5-(trifluoromethyl)phenyl]ethanone oxime] yielded a chromatographic logP of 3.17. With `NC(c1cc(Cl)cc(C(F)(F)F)c1)C(F)(F)F` (stereo not shown) [1-[3-Chloro-5-(trifluoromethyl)phenyl]-2,2,2-trifluoroethanamine] the chromatographic logP was 2.94. In the case of `NCc1ccc(Br)cc1C(F)(F)F` [1-[4-Bromo-2-(trifluoromethyl)phenyl]methanamine], the chromatographic logP is reported as 0.92. `NC(c1cc(Cl)c(Cl)c(Cl)c1)C(F)(F)F` (stereo not shown) [2,2,2-Trifluoro-1-(3,4,5-trichlorophenyl)ethanamine] showed a chromatographic logP of 3.17. For `O=C(c1cc(F)cc(C(F)(F)F)c1)C(F)(F)F` [2,2,2-Trifluoro-1-[3-fluoro-5-(trifluoromethyl)phenyl]ethanone], the chromatographic logP was 2.54. In the case of `CC(F)(F)C(=O)c1cccc(C(F)(F)F)c1` [2,2-Difluoro-1-[3-(trifluoromethyl)phenyl]propan-1-one], the chromatographic logP is reported as 3.61. Work on `O=C(O)c1ccc2cc(C(=O)NC(c3cccc(C(F)(F)F)c3)C(F)(F)F)oc2c1` (stereo not shown) [2-({2,2,2-Trifluoro-1-[3-(trifluoromethyl)phenyl]ethyl}carbamoyl)-1-benzofuran-6-carboxylic acid] yielded a chromatographic logP of 3.1. Work on `O=C(/C=C/c1ccc(C(=O)O)c(Br)c1)NC(c1cccc(C(F)(F)F)c1)C(F)(F)F` (stereo not shown) [2-Bromo-4-[(1E)-3-oxo-3-({2,2,2-trifluoro-1-[3-(trifluoromethyl)phenyl]ethyl}amino)prop-1-en-1-yl]benzoic acid] yielded a chromatographic logP of 3.15. `O=C(/C=C/c1ccc(C(=O)O)c(Cl)c1)NC(c1cccc(C(F)(F)F)c1)C(F)(F)F` (stereo not shown) [2-Chloro-4-[(1E)-3-oxo-3-({2,2,2-trifluoro-1-[3-(trifluoromethyl)phenyl]ethyl}amino)prop-1-en-1-yl]benzoic acid] showed a chromatographic logP of 3.1. With `O=C(C#Cc1ccc(C(=O)NC2CC2)c(Cl)c1)NC(c1cccc(C(F)(F)F)c1)C(F)(F)F` (stereo not shown) [2-Chloro-N-cyclopropyl-4-[3-oxo-3-({2,2,2-trifluoro-1-[3-(trifluoromethyl)phenyl]ethyl}amino)prop-1-yn-1-yl]benzamide] the chromatographic logP was 3.34. `O=C(NC1CC1)c1ccc(I)cc1Cl` [2-Chloro-N-cyclopropyl-4-iodobenzamide] showed a chromatographic logP of 2.13. Work on `Cc1cc(/C=C/C(=O)NC(c2cccc(C(F)(F)F)c2)C(F)(F)F)ccc1C(=O)O` (stereo not shown) [2-Methyl-4-[(1E)-3-oxo-3-({2,2,2-trifluoro-1-[3-(trifluoromethyl)phenyl]ethyl}amino)prop-1-en-1-yl]benzoic acid] yielded a chromatographic logP of 3.14. In the case of `Cc1cc(Br)ccc1C(=O)NCc1ccccn1` [4-Bromo-2-methyl-N-(pyridin-2-ylmethyl)benzamide], the chromatographic logP is reported as 1.4. Work on `O=C(Nc1ccccn1)c1ccc(Br)cc1C(F)(F)F` [4-Bromo-N-(pyridin-2-yl)-2-(trifluoromethyl)benzamide] yielded a chromatographic logP of 2.57. Molecule `O=C(NCc1ccccn1)c1ccc(Br)cc1C(F)(F)F` [4-Bromo-N-(pyridin-2-ylmethyl)-2-(trifluoromethyl)benzamide] has a chromatographic logP of 1.56. `O=C(NC1CC1)c1ccc(Br)cc1C(F)(F)F` [4-Bromo-N-cyclopropyl-2-(trifluoromethyl)benzamide] showed a chromatographic logP of 2.13. For `O=C(/C=C/c1ccc(C(=O)O)c(C(F)(F)F)c1)NC(c1cccc(C(F)(F)F)c1)C(F)(F)F` (stereo not shown) [4-[(1E)-3-Oxo-3-({2,2,2-trifluoro-1-[3-(trifluoromethyl)phenyl]ethyl}amino)prop-1-en-1-yl]-2-(trifluoromethyl)benzoic acid], the chromatographic logP was 3.29. With `NCc1ccc2oc(C(=O)NC(c3cccc(C(F)(F)F)c3)C(F)(F)F)cc2c1` (stereo not shown) [5-(Aminomethyl)-N-{2,2,2-trifluoro-1-[3-(trifluoromethyl)phenyl]ethyl}-1-benzofuran-2-carboxamide] the chromatographic logP was 2.02. With `CC(C)(C)OC(=O)c1ccc2cc(C(=O)O)oc2c1` [6-(tert-Butoxycarbonyl)-1-benzofuran-2-carboxylic acid] the chromatographic logP was 2.58. `CCOC(=O)c1cc2ccc(C(=O)OC(C)(C)C)cc2o1` [6-tert-Butyl 2-ethyl 1-benzofuran-2,6-dicarboxylate] showed a chromatographic logP of 4.32. For `NC1CCc2cc(/C=C/C(=O)NC(c3cccc(C(F)(F)F)c3)C(F)(F)F)ccc21` (stereo not shown) [(2E)-3-(1-Amino-2,3-dihydro-1H-inden-5-yl)-N-{2,2,2-trifluoro-1-[3-(trifluoromethyl)phenyl]-ethyl}acrylamide], the chromatographic logP was 1.7. For `Nc1cccc(/C=C/C(=O)NC(c2cccc(C(F)(F)F)c2)C(F)(F)F)c1` (stereo not shown) [(2E)-3-(3-Aminophenyl)-N-{2,2,2-trifluoro-1-[3-(trifluoromethyl)phenyl]ethyl}acrylamide], the chromatographic logP was 2.88. `O=C(/C=C/c1cccc([N+](=O)[O-])c1)NC(c1cccc(C(F)(F)F)c1)C(F)(F)F` (stereo not shown) [(2E)-3-(3-Nitrophenyl)-N-{2,2,2-trifluoro-1-[3-(trifluoromethyl)phenyl]ethyl}acrylamide] showed a chromatographic logP of 3.81.
